Laboratory results: patent publication US6500431B1, “Inhibitors of angiogenesis and tumor growth” (University of Southern California, priority 1998, dated 2002)
No end group written: not given here.

Columns and labels:
Type in all cases: cell-based
[1] = test system: T1 cells; test: Fibroblast proliferation assay (MTT); settings: for Fibroblast Proliferation, % of Control: 5000 T1 cells/well, 7 days; for Cell Proliferation Activity (% of control), T1: concentration not given, 5 days
Protocol: To determine if Saposin B polypeptides had anti-angiogenic activity, a series of overlapping polypeptides were synthesized and tested in the KS Y-1 cell proliferation assay. The overlapping polypeptides are SEQ ID NOS:13 though 42. Cell Proliferation assays in either KS cells or fibroblast. Cells were plated in 48 well plates at equal numbers in appropriate culture medium. Cells were treated with the test compounds at various concentrations on day one, and on day 3. […] KS cells were used to represent the activated endothelial cells, while fibroblast cells represent the control cells. The results are remarkable for the lack of toxicity to the fibroblast relative to the activated endothelial cells/KS cells.

[2] = test system: endothelial cells (HUVEC); test: Growth inhibition of endothelial cells; settings: for activity against endothelial cells: Saposin C: highest concentration tested 50 μg/mL
Protocol: FIG. 1D: Activity of n-terminus decapeptide (DVCQDCIQMV; SEQ ID NO 21).
FIG. 1E: Activity of N-terminus pentapeptide (DVCQC; SEQ ID NO: 28).
(§1) By SDS-PAGE, the bacterial product was smaller than the eukaryotic protein. Because prokaryotically expressed proteins are not glycosylated, the difference in molecular weights probably represents the presence of carbohydrate in the eukaryotic protein. Recombinant proteins were then tested in KS, endothelial and control cell lines. Activity was found only in KS cell lines and endothelial cells.

[3] = test system: KS Y-1 cells; test: KS Y-1 cell proliferation assay (MTT); settings: for KS Cell Proliferation, % of Control: 7,500 KS Y-1 cells/well; for KS Cell Proliferation, % of Control / Cell Proliferation Activity (% of control), KSY-1: 5 days, MTT; for Cell Proliferation Activity (% of control), KSY-1: concentration not printed
Protocol: To determine if Saposin B polypeptides had anti-angiogenic activity, a series of overlapping polypeptides were synthesized and tested in the KS Y-1 cell proliferation assay. The overlapping polypeptides are SEQ ID NOS:13 though 42. Cell Proliferation assays in either KS cells or fibroblast. Cells were plated in 48 well plates at equal numbers in appropriate culture medium. Cells were treated with the test compounds at various concentrations on day one, and on day 3. MTT was done on day 5. KS cells were used to represent the activated endothelial cells, while fibroblast cells represent the control cells. The results are remarkable for the lack of toxicity to the fibroblast relative to the activated endothelial cells/KS cells.

[4] = test system: KS cell lines; test: Activity of recombinant Prosaposin chains on growth of KS cell lines; settings: Saposin C: highest concentration tested 50 μg/mL
Excerpt: In order to determine whether recombinant Saposin B has anti-angiogenic activity, the coding region of each of the Prosaposin chains was amplified from fibroblast cell lines and cloned into both bacterial (pGEX-KG) and eukaryotic (pcDNA 3.1His A) expression vectors.
The PCR products were digested with the respective restriction enzymes and the restriction products were inserted into the pGEX-KG vector for bacterial expression. pGEX-KG vector comprises a glutathione S transferase (GST)-tag at the […] of the insertion site so that a GST-fusion protein is expressed. The GST-tag is used to aid in purification of the recombinant protein. After elution from a glutathione-Sepharose 4B column, the GST-tagged proteins were incubated with thrombin (4 μg/ml) for 4 hr at room temperature (22-25° C.) in 50 mM Tris, pH 8.3, 3 mM CaCl2, 150 mM NaCl to cleave GST from the fusion protein. Free GST was removed from the preparation by passing the digested fusion protein through the glutathione-Sepharose 4B column.
as §1

[5] = first of two KSY-1 value columns
[6] = second of two KSY-1 value columns

DVCQDCIQMV [SEQ ID NO:21]
Fibroblast Proliferation, % of Control ([1]; 1 μg/mL): 100.0 % of Control | Fibroblast Proliferation, % of Control ([1]; 10 μg/mL): 91.3 % of Control | Fibroblast Proliferation, % of Control ([1]; 50 μg/mL): 87.0 % of Control | growth inhibition of endothelial cells ([2]; FIG. 1, 1D, 1E): Only endothelial cells show dose dependent growth inhibition | KS Cell Proliferation, % of Control ([3]; 1 μg/mL): 88.7 % of Control | KS Cell Proliferation, % of Control ([3]; 5 μg/mL): 68.7 % of Control | KS Cell Proliferation, % of Control ([3]; 10 μg/ml): 26.1 % of Control | KS Cell Proliferation, % of Control ([3]; 50 μg/mL): 7.0 % of Control | Cell Proliferation Activity (% of control), KSY-1 [3, 5]: 29 % of control

DCIQMV [SEQ ID NO:23]
KS Cell Proliferation, % of Control ([3]; 1 μg/mL): 88.7 % of Control | KS Cell Proliferation, % of Control ([3]; 5 μg/mL): 83.5 % of Control | KS Cell Proliferation, % of Control ([3]; 10 μg/ml): 68.7 % of Control | KS Cell Proliferation, % of Control ([3]; 50 μg/mL): 51.3 % of Control | Cell Proliferation Activity (% of control), KSY-1 [3, 5]: 68 % of control | Cell Proliferation Activity (% of control), KSY-1 [3, 6]: 51 % of control

DVCQDCI [SEQ ID NO:26]
Cell Proliferation Activity (% of control), T1 [1]: 81 % of control | Cell Proliferation Activity (% of control), T1 ([1]; first of two T1 value columns): 96 % of control | Cell Proliferation Activity (% of control), KSY-1 [3, 5]: 72 % of control | Cell Proliferation Activity (% of control), KSY-1 [3, 6]: 40 % of control

QDCIQMV [SEQ ID NO:31, QDCIQMV]
Cell Proliferation Activity (% of control), T1 [1]: 80 % of control | Cell Proliferation Activity (% of control), T1 ([1]; first of two T1 value columns): 87 % of control | IC50 [3]: 16.6 µM | Cell Proliferation Activity (% of control), KSY-1 [3, 5]: 74 % of control

QMMMHMQPKEICALVG [SEQ ID NO:18]
KS Cell Proliferation, % of Control ([3]; 10 μg/ml): 88.9 % of Control | KS Cell Proliferation, % of Control ([3]; 100 μg/mL): 86.4 % of Control | KS Cell Proliferation, % of Control ([3]; 500 μg/mL): 58.0 % of Control

DVCQDCIQM [SEQ ID NO:24]
Cell Proliferation Activity (% of control), T1 [1]: 84 % of control | Cell Proliferation Activity (% of control), T1 ([1]; first of two T1 value columns): 96 % of control | Cell Proliferation Activity (% of control), KSY-1 [3, 5]: 68 % of control | Cell Proliferation Activity (% of control), KSY-1 [3, 6]: 46 % of control

QMVTDIQTQVRTNSTF [SEQ ID NO:43, QMVTDIQTQVRTNSTF]
IC50 [3]: 14 µM

YISQYSEIAIQMMMHMQP [SEQ ID NO:17, YISQYSEIAIQMMMHMQP]
IC50 [3]: 20 µM | KS Cell Proliferation, % of Control ([3]; 10 μg/ml): 96.3 % of Control | KS Cell Proliferation, % of Control ([3]; 100 μg/mL): 86.4 % of Control | KS Cell Proliferation, % of Control ([3]; 500 μg/mL): 46.9 % of Control

B1: Saposin D: sphingolipid-binding glycoprotein derived from Prosaposin; recombinant (protein, UniProt P07602 405-486, looked up)
Saposin-D: DGGFCEVCKKLVGYLDRNLEKNSTKQEILAALEKGCSFLPDPYQKQCDQFVAEYEPVLIEILVEVMDPSFVCLKIGACPSAH
modifications: Saposin-D
notes: recombinant
activity against KS cell lines [4]: no activity | activity against endothelial cells [2]: no activity

B2: Saposin C: sphingolipid-binding glycoprotein derived from Prosaposin; recombinant (protein, UniProt P07602 311-390, looked up)
Saposin-C: SDVYCEVCEFLVKEVTKLIDNNKTEKEILDAFDKMCSKLPKSLSEECQEVVDTYGSSILSILLEEVSPELVCSMLHLCSG
modifications: Saposin-C
notes: recombinant
activity against KS cell lines [4]: no activity | activity against endothelial cells [2]: no activity

B3: Saposin A: sphingolipid-binding glycoprotein derived from Prosaposin; recombinant (protein, UniProt P07602 60-142, looked up)
Saposin-A: SLPCDICKDVVTAAGDMLKDNATEEEILVYLEKTCDWLPKPNMSASCKEIVDSYLPVILDIIKGEMSRPGEVCSALNLCESLQ
modifications: Saposin-A
notes: recombinant
activity against KS cell lines [4]: no activity | activity against endothelial cells [2]: no activity

B4: Prosaposin: 70 kD glycoprotein, precursor of Saposin A, B, C and D; naturally occurring full-length (protein, listed as Homo sapiens)
chain: MYALFLLASLLGAALAGPVLGLKECTRGSAVWCQNVKTASDCGAVKHCLQTVWNKPTVKSLPCDICKDVVTAAGDMLKDNATEEEILVYLEKTCDWLPKPNMSASCKEIVDSYLPVILDIIKGEMSRPGEVCSALNLCESLQKHLAELNHQKQLESNKIPELDMTEVVAPFMANIPLLLYPQDGPRSKPQPKDNGDVCQDCIQMVTDIQTAVRTNSTFVQALVEHVKEECDRLGPGMADICKNYISQYSEIAIQMMMHMQPKEICALVGFCDEVKEMPMQTLVPAKVASKNVIPALELVEPIKKHEVPAKSDVYCEVCEFLVKEVTKLIDNNKTEKEILDAFDKMCSKLPKSLSEECQEVVDTYGSSILSILLEEVSPELVCSMLHLCSGTRLPALTVHVTQPKDGGFCEVCKKLVGYLDRNLEKNSTKQEILAALEKGCSFLPDPYQKQCDQFVAEYEPVLIEILVEVMDPSFVCLKIGACPSAHKPLLGTEKCIWGPSYWCQNTETAAQCNAVEHCKRHVWN
modifications: prosaposin
notes: 70 kD glycoprotein, precursor of Saposin A, B, C and D; naturally occurring full-length
activity against KS cell lines [4]: no activity | activity against endothelial cells [2]: no activity
